In patent publication US20100189648A1, “INHIBITORS FOR DISRUPTING THE INTERACTION OF UBIQUITINATION RELATED ENZYMES AND USES THEREOF” (priority 2006, published 2010):
Values after ≈ are worked out from the molar mass of the structure shown. Values joined by “and” are separate entries in the source; they are usually repeats but may differ in a detail not shown here. Equal values may be shown once. Read-outs that look alike come from different tables or passages of the source.

How the values were obtained:
Type in all cases: cell-based, human
Hela cells = test: MTT survival assay, cervical cancer line (Hela cells); conditions: for IC50: Homo sapiens
Outline: (§1)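 3-5×10^4 cells/ml, RPMI1640/MEM + 10% FBS, 37 C; o/n attach; cpd 68 h (n=3), DDP pos ctrl; MTT 1 mg/ml 4 h; DMSO; OD570; IR% vs neg ctrl; IC50 Bliss.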

A459 = test: MTT survival assay, lung cancer cell line (A459); conditions: A459 Experiment #2; for IC50: Homo sapiens
Outline: as §1

HCT116 = test: MTT survival assay, colon cancer cell line (HCT116); conditions: for IC50: Homo sapiens
Protocol: The effect of the above identified compounds on anti-tumor activity in human carcinoma cells was determined by the MTT survival assay. The MTT assay is a commonly used method in evaluation of cell survival, based on the ability of viable cells to convert MTT (MTT, Sigma, Cat No. 044K5307), a soluble tetrazolium salt [3-(4,5-dimethylthuazole-2-yl)-2,5 diphenyl tetrazolium bromide], into an insoluble formazan precipitate, which is quantitated by spectrophotometry following solubilization in dimethyl sulfoxide (DMSO).
In brief, different carcinoma cells were treated with negative control, various test articles at different concentration, and positive control (DDP), in 96-well tissue culture dishes. Each test article at different concentration is repeated 3 times.
Different carcinoma cells were diluted with 10% FBS and RPM1640 or MEM media to a concentration of 3-5×10^4 per ml suspension. 100 microliter of cells were incubated in each well in 96-well tissue culture dishes at 37 C. The cells were incubated at 37 C on the first day. On the second day, media supernatant was removed and replaced with media and different concentration of test articles (100 microliter in each well). Three Negative control wells and three positive control (DDP) wells were also included. The 96-well plate were incubated at 37 C for another 68 hours. After 68 hours, supernatant of each well was removed. 100 microliter of 1 mg/ml MTT diluted in PBS was injected into each well. The cells were incubated at 37 C for another 4 hours. The cells were then solubilized in 150 microliter DMSO, mixed for 10 minutes and absorbance readings were taken using Microplate reader Bio-Rad Model 550 at 570 nm. IR (cell growth inhibition rate) % was calculated as (OD570 of negative control-OD570 with test article)/OD570 of negative control. IC50 (cell 50% inhibition concentration) at 95% confidence level was calculated with Bliss method.

SMMC-7721 = test: MTT survival assay, liver cancer cell line (SMMC-7721); conditions: SMMC-7721 Experiment #2; for IC50: Homo sapiens
Outline: as §1

MCF-7 = test: MTT survival assay, breast cancer cell line (MCF-7); conditions: for IC50: Homo sapiens
Outline: as §1

U251 = test: MTT survival assay, glioma cell line (brain tumor U251); conditions: U251 (second table)
Outline: as §1

SKOV3 = test: MTT survival assay, ovarian cancer cell line (SKOV3); conditions: SKOV3 (second table)
Outline: as §1

[1] = 95% confidence limits of IC50, read-out: IC50 (95% confidence level), interval
[2] = Bliss method, unit not printed (concentrations in μg/ml), read-out: IC50 (95% confidence level)

## O=C(CSc1cc(COc2ccc(Br)cc2)[nH]n1)c1ccccc1 [Mol 21]
Hela cells; 0.41 μg/ml
  IR (%): 10.0%
  OD(A570 nm): 0.668 ± 0.049
Hela cells; 1.23 μg/ml
  OD(A570 nm): 0.785 ± 0.081
Hela cells; 3.70 μg/ml
  OD(A570 nm): 0.774 ± 0.066
Hela cells; 11.11 μg/ml
  IR (%): 35.4%
  OD(A570 nm): 0.480 ± 0.035
Hela cells; 33.33 μg/ml
  IR (%): 73.8%
  OD(A570 nm): 0.194 ± 0.031
Hela cells; 100 μg/ml
  IR (%): 82.5%
  OD(A570 nm): 0.130 ± 0.039
Hela cells; [1]
  IC50: 18.8 to 26.4 µg/mL (≈ 46.6 to 65.6 µM)
Hela cells; [2]
  IC50: 22.2 µg/mL (≈ 55.1 µM)
A459; 3.125 μg/ml
  IR (%): −0.7%
  OD(A570 nm): 0.642 ± 0.073
A459; 6.25 μg/ml
  IR (%): −3.9%
  OD(A570 nm): 0.662 ± 0.031
A459; 12.5 μg/ml
  IR (%): 56.2%
  OD(A570 nm): 0.279 ± 0.014
A459; 25 μg/ml
  IR (%): 81.5%
  OD(A570 nm): 0.118 ± 0.027
A459; 50 μg/ml
  IR (%): 89.2%
  OD(A570 nm): 0.069 ± 0.010
A459; 100 μg/ml
  IR (%): 87.1%
  OD(A570 nm): 0.082 ± 0.015
A459; [1]
  IC50: 6.3 to 7.13 µg/mL (≈ 15.6 to 17.7 µM)
A459; [2]
  IC50: 6.72 µg/mL (≈ 16.7 µM)
HCT116; 3.125 μg/ml
  IR (%): 56.2% and 30.4%
HCT116; 6.25 μg/ml
  OD(A570 nm): 0.300 ± 0.050 and 0.394 ± 0.039
HCT116; 12.5 μg/ml
  OD(A570 nm): 0.150 ± 0.025 and 0.267 ± 0.035
HCT116; 25 μg/ml
  IR (%): 80.0% and 81.3%
  OD(A570 nm): 0.109 ± 0.006 and 0.101 ± 0.020
HCT116; 50 μg/ml
  OD(A570 nm): 0.083 ± 0.011 and 0.085 ± 0.004
HCT116; 100 μg/ml
  IR (%): 84.1% and 84.7%
  OD(A570 nm): 0.086 ± 0.012 and 0.083 ± 0.001
HCT116; HCT-116, 95% confidence limits of IC50, read-out: IC50 (95% confidence level), interval
  IC50: 2.99 to 3.33 µg/mL (≈ 7.42 to 8.26 µM)
HCT116; HCT-116, Bliss method, unit not printed (concentrations in μg/ml), read-out: IC50 (95% confidence level)
  IC50: 3.16 µg/mL (≈ 7.84 µM)
SMMC-7721; [1]
  IC50: 9.32 to 9.71 µg/mL (≈ 23.1 to 24.1 µM)
SMMC-7721; [2]
  IC50: 9.52 µg/mL (≈ 23.6 µM)
SMMC-7721; 3.125 μg/ml
  IR (%): −49.9%
  OD(A570 nm): 0.690 ± 0.603
SMMC-7721; 6.25 μg/ml
  IR (%): 65.1%
  OD(A570 nm): 0.161 ± 0.085
SMMC-7721; 12.5 μg/ml
  IR (%): 68.3%
  OD(A570 nm): 0.146 ± 0.041
SMMC-7721; 25 μg/ml
  IR (%): 72.0%
  OD(A570 nm): 0.129 ± 0.006
SMMC-7721; 50 μg/ml
  IR (%): 82.9%
  OD(A570 nm): 0.079 ± 0.005
SMMC-7721; 100 μg/ml
  IR (%): 83.2%
  OD(A570 nm): 0.077 ± 0.009
MCF-7; 3.125 μg/ml
  IR (%): 12.5%
  OD(A570 nm): 0.789 ± 0.064
MCF-7; 6.25 μg/ml
  IR (%): 30.9%
  OD(A570 nm): 0.624 ± 0.008
MCF-7; 12.5 μg/ml
  IR (%): 61.6%
  OD(A570 nm): 0.346 ± 0.022
MCF-7; 25 μg/ml
  IR (%): 89.1%
  OD(A570 nm): 0.098 ± 0.006
MCF-7; 50 μg/ml
  IR (%): 92.4%
  OD(A570 nm): 0.069 ± 0.006
MCF-7; 100 μg/ml
  IR (%): 92.1%
  OD(A570 nm): 0.072 ± 0.007
MCF-7; MCF7, 95% confidence limits of IC50, read-out: IC50 (95% confidence level), interval
  IC50: 8.53 to 11.4 µg/mL (≈ 21.2 to 28.4 µM)
MCF-7; MCF7, Bliss method, unit not printed (concentrations in μg/ml), read-out: IC50 (95% confidence level)
  IC50: 9.93 µg/mL (≈ 24.6 µM)
U251; Homo sapiens, U-251, Bliss method, unit not printed (concentrations in μg/ml), read-out: IC50 (95% confidence level)
  IC50: 16.2 µg/mL (≈ 40.3 µM)
U251; 3.125 μg/ml
  IR (%): 4.2%
  OD(A570 nm): 0.840 ± 0.013
U251; 6.25 μg/ml
  IR (%): 18.0%
  OD(A570 nm): 0.719 ± 0.110
U251; 12.5 μg/ml
  IR (%): 42.8%
  OD(A570 nm): 0.501 ± 0.058
U251; 25 μg/ml
  IR (%): 73.5%
  OD(A570 nm): 0.232 ± 0.034
U251; 50 μg/ml
  IR (%): 86.2%
  OD(A570 nm): 0.121 ± 0.019
U251; 100 μg/ml
  IR (%): 89.2%
  OD(A570 nm): 0.094 ± 0.007
SKOV3; Homo sapiens, SK-OV-3, Bliss method, unit not printed (concentrations in μg/ml), read-out: IC50 (95% confidence level)
  IC50: 17.7 µg/mL (≈ 43.9 µM)
SKOV3; 3.125 μg/ml
  IR (%): 28.2%
  OD(A570 nm): 0.503 ± 0.031
SKOV3; 6.25 μg/ml
  IR (%): 24.1%
  OD(A570 nm): 0.532 ± 0.025
SKOV3; 12.5 μg/ml
  IR (%): 34.3%
  OD(A570 nm): 0.460 ± 0.195
SKOV3; 25 μg/ml
  IR (%): 38.8%
  OD(A570 nm): 0.429 ± 0.002
SKOV3; 50 μg/ml
  IR (%): 83.0%
  OD(A570 nm): 0.119 ± 0.010
SKOV3; 100 μg/ml
  IR (%): 89.1%
  OD(A570 nm): 0.077 ± 0.011
